What is called IC50 is the concentration at which inhibition is half-maximal.

In one experiment the target is menin protein (Homo sapiens (Human), UniProt O00255). Description: biochemical. Format: binding. The note with it: FP competitive binding; menin protein 4 nM, FAM-MM2 probe 2 nM. In a few lines: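 Competitive fluorescence polarization assay using FAM-labelled MLL1 peptide probe FAM-MM2 (2 nM final) preincubated with menin (4 nM final) in PBS with 0.02% bovine γ-globulin, 4% DMSO and 0.01% Triton X-100. Compounds were added and incubated 30 min at room temperature. IC50 came from nonlinear regression of competition curves, with Ki also derived.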
menin protein, sequence (O00255 whole entry): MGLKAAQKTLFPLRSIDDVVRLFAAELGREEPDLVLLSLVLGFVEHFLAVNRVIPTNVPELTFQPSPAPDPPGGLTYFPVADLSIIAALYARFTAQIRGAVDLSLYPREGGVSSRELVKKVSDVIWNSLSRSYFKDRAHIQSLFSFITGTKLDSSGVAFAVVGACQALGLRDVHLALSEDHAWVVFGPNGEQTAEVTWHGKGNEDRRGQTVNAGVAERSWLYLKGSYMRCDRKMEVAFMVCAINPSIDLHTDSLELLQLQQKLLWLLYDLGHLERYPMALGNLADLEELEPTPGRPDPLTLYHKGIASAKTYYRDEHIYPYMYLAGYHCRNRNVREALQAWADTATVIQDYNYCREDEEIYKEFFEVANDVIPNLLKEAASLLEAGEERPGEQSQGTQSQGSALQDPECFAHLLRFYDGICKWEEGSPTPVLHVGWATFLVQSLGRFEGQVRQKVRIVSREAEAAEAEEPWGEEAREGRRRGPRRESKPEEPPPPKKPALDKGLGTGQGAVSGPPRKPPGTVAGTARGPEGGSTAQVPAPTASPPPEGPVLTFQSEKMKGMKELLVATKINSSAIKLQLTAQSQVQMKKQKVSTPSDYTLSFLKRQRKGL
With `CCN1Cc2ccccc2C(C2CCCC2)(C2CCN(Cc3ccccc3Oc3ccc(S(=O)(=O)c4ccncc4)cc3)CC2)C1` (centres unmarked) [compound 162, 4-cyclopentyl-2-ethyl-4-(1-(2-(4-(pyridin-4-ylsulfonyl)phenoxy)benzyl)piperidin-4-yl)-1,2,3,4-tetrahydroisoquinoline], the “Menin Binding Affinity IC50 (μM)” value was “No inhibition”.

For `N#Cc1ccc(OCCCN2CC(C3(C4CCCC4)NCCc4ccccc43)C2)cc1` (centres unmarked) [compound 60, 4-(3-(3-(1-cyclopentyl-1,2,3,4-tetrahydroisoquinolin-1-yl)azetidin-1-yl)propoxy)benzonitrile], the “Menin Binding Affinity IC50 (μM)” value is recorded as “No inhibition”.

Still in this experiment, the particulars now being: FP competitive binding; menin protein 4 nM, FAM-MM2 probe 2 nM; read-out: Menin Binding Affinity IC50.
As for `CNC(=O)O[C@H]1CCC[C@@H]1C(Cn1ccnc1)(c1ccccc1)C1CCN(CC2CN(c3ccc(S(=O)(=O)C4COC4)cc3)C2)CC1` (mixture of isomers) [compound 412, rac-(1S,2R)-2-(2-(1H-imidazol-1-yl)-1-(1-((1-(4-(oxetan-3-ylsulfonyl)phenyl)azetidin-3-yl)methyl)piperidin-4-yl)-1-phenylethyl)cyclopentyl methylcarbamate], the IC50 was determined as 0.004 µM.

For the molecule `CNC(=O)O[C@@H]1CCC[C@H]1C(C#N)(c1ccccc1)C1CCN(CC2CN(c3ccc(C(F)(F)F)cc3)C2)CC1` (mixture of isomers) [compound 368, rac-(1R,2S)-2-(cyano(phenyl)(1-((1-(4-(trifluoromethyl)phenyl)azetidin-3-yl)methyl)piperidin-4-yl)methyl)cyclopentyl methylcarbamate], the half-maximal inhibitory concentration (IC50) amounted to 0.506 µM.

Take `CN([C@@H]1CCC[C@H]1C(C#N)(c1ccccc1)C1CCN(CC2CN(c3ccc(S(=O)(=O)C4CC4)cc3)C2)CC1)S(C)(=O)=O` (mixture of isomers) [compound 274, rac-N-((1R,2S)-2-(cyano(1-((1-(4-(cyclopropylsulfonyl)phenyl)azetidin-3-yl)methyl)piperidin-4-yl)(phenyl)methyl)cyclopentyl)-N-methanesulfonamide]: the IC50 came to 19.2 µM.

Regarding `Cc1nccn1CC(c1ccccc1)(C1CCCC1)C1CCN(CCCOc2ccc(C#N)cc2)CC1` (centres unmarked) [compound 41, 4-(3-(4-(1-cyclopentyl-2-(2-methyl-1H-imidazol-1-yl)-1-phenylethyl)piperidin-1-yl)propoxy)benzonitrile], the IC50 is 0.166 µM.

Turning to `COC(=O)[C@@H]1CCC[C@H]1C(C#N)(c1ccccc1)C1CCN(CC2CN(c3ccc(S(=O)(=O)C4CC4)cc3)C2)CC1` (mixture of isomers) [compound 333, methyl rac-(1R,2R)-2-(cyano(1-((1-(4-(cyclopropylsulfonyl)phenyl)azetidin-3-yl)(phenyl)methyl)cyclopentane-1-carboxylate], the IC50 came to 5.1 µM.

Take `CC(COc1ccc(C#N)cc1)CN1CCC(C(C#N)(c2ccccc2)C2CCCC2)CC1` (centres unmarked) [compound 127, 4-(3-(4-(cyano(cyclopentyl)(phenyl)methyl)piperidin-1-yl)-2-methylpropoxy)benzonitrile]: the IC50 came to 294 µM.

Regarding `CN1Cc2ccccc2C(C2CCCC2)(C2CCN(CCCOc3ccc(S(C)(=O)=O)cc3)CC2)C1` (centres unmarked) [compound 68, 4-cyclopentyl-2-methyl-4-(1-(3-(4-(methylsulfonyl)phenoxy)propyl)piperidin-4-yl)-1,2,3,4-tetrahydroisoquinoline], the IC50 turned out to be 0.181 µM.

Take `N#Cc1cc2ccc(C(=O)N[C@H]3CC[C@H](C4(C5CCCC5)NCCc5ccccc54)CC3)cc2[nH]1` (some centres unmarked) [compound 81, 2-cyano-N-((1r,4r)-4-(1-cyclopentyl-1,2,3,4-tetrahydroisoquinolin-1-yl)cyclohexyl)-1H-indole-6-carboxamide]: the IC50 was found to be 1.9 µM.

For the molecule `N#CC(c1ccccc1)(C1CCN(CC2CN(c3ccc(S(=O)(=O)c4ccncc4)cc3)C2)CC1)[C@@H]1CCC[C@H]1OC(=O)C1CC1` (mixture of isomers) [compound 198, rac-(1R,2S)-2-(cyano(phenyl)(1-((1-(4-(pyridin-4-ylsulfonyl)phenyl)azetidin-3-yl)methyl)piperidin-4-yl)methyl)cyclopentyl cyclopropanecarboxylate], the IC50 came to 0.853 µM.

As to `N#CC(c1ccccc1)(C1CCN(CC2CN(c3ccc(S(=O)(=O)c4ccncc4)cc3)C2)CC1)[C@H]1CCC[C@@H]1OC(=O)N1CCC1` (mixture of isomers) [compound 221, rac-(1S,2R)-2-(cyano(phenyl)(1-((1-(4-(pyridin-4-ylsulfonyl)phenyl)azetidin-3-yl)methyl)piperidin-4-yl)methyl)cyclopentyl azetidine-1-carboxylate], the IC50 stood at 0.075 µM.

For the molecule `CC(=O)OC[C@H]1CCC[C@@H]1C(C#N)(c1ccccc1)C1CCN(CC2CN(c3ccc(S(=O)(=O)C4CC4)cc3)C2)CC1` (mixture of isomers) [compound 261, rac-((1S,2S)-2-(cyano(1-((1-(4-(cyclopropylsulfonyl)phenyl)azetidin-3-yl)methyl)piperidin-4-yl)(phenyl)methyl)cyclopentyl) methyl acetate], the IC50 turned out to be 9.3 µM.

For the molecule `CC(=O)O[C@@H]1CCC[C@H]1C(C#N)(c1ccccc1)C1CCN(CC2CN(c3ccc(C(=O)O)cc3)C2)CC1` (mixture of isomers) [compound 389, rac-4-(3-((4-(((1S,2R)-2-acetoxycyclopentyl)(cyano) (phenyl)methyl)piperidin-1-yl)methyl)azetidin-1-yl)benzoic acid], the IC50 was found to be 6.5 µM.

Consider `COC(=O)N[C@@H]1CCC[C@H]1C(C#N)(c1ccccc1)C1CCN(CC2CN(c3ccc(S(=O)(=O)c4cnn(C)c4)cc3)C2)CC1` (mixture of isomers) [Cpd. No. 350, methyl (rac-(1R,2S)-2-(cyano(1-((1-(4-((1-methyl-1H-pyrazol-4-yl)sulfonyl)phenyl)azetidin-3-yl)methyl)piperidin-4-yl)(phenyl)methyl)cyclopentyl)carbamate], for which the IC50 came out at 1.2 µM.

As to `CC(C)CCC1(C2CCN(CCCOc3ccc(C#N)cc3)CC2)NCCc2ccccc21` (centres unmarked) [compound 250, 4-(3-(4-(1-isopentyl-1,2,3,4-tetrahydroisoquinolin-1-yl)piperidin-1-yl)propoxy)benzonitrile], the half-inhibitory concentration (IC50) is 4.7 µM.

Take `CC(=O)O[C@H]1CCC[C@@H]1C(C#N)(c1ccccc1)C1CCN(CC2CN(c3ccc(S(C)(=O)=O)cc3)C2)CC1` (mixture of isomers) [compound 183, rac-(1S,2R)-2-(cyano(1-((1-(4-(methylsulfonyl)phenyl)azetidin-3-yl)methyl)piperidin-4-yl)(phenyl)methyl)cyclopentyl acetate]: the IC50 came out at 0.073 µM.

As for `N#CC(c1ccccc1)(C1CCN(CC2CN(c3ccc(S(=O)(=O)c4ccccc4)cc3)C2)CC1)[C@@H]1CCC[C@H]1OC(N)=O` (mixture of isomers) [compound 224, rac-(1R,2S)-2-(cyano(phenyl)(1-((1-(4-(phenylsulfonyl)phenyl)azetidin-3-yl)methyl)piperidin-4-yl)methyl)cyclopentyl carbamate], the IC50 amounted to 0.331 µM.

Regarding `COC(=O)[C@H]1CCC[C@@H]1C(C#N)(c1ccccc1)C1CCN(CC2CN(c3ccc(S(=O)(=O)C4CC4)cc3)C2)CC1` (mixture of isomers) [compound 332, methyl rac-(1S,2S)-2-(cyano(1-((1-(4-(cyclopropylsulfonyl)phenyl)azetidin-3-yl)methyl)piperidin-4-yl)(phenyl)methyl)cyclopentane-1-carboxylate], the IC50 was 0.261 µM.

Consider `CNC(=O)C[C@@H]1CCC[C@H]1C(C#N)(c1ccccc1)C1CCN(CC2CN(c3ccc(S(=O)(=O)c4ccncc4)cc3)C2)CC1` (mixture of isomers) [compound 339, rac-2-((1S,2R)-2-(cyano(phenyl)(1-((1-(4-(pyridin-4-ylsulfonyl)phenyl)azetidin-3-yl)methyl)piperidin-4-yl)methyl)cyclopentyl)-N-methylacetamide], for which the IC50 is 5.2 µM.

For the molecule `CCC(CC)C(=O)N1CCCCC1C1(C2CCN(CCCOc3ccc(C#N)cc3)CC2)CN(C)Cc2ccccc21` (centres unmarked) [compound 301, 4-(3-(4-(4-(1-(2-ethylbutanoyl)piperidin-2-yl)-2-methyl-1,2,3,4-tetrahydroisoquinolin-4-yl)piperidin-1-yl)propoxy)benzonitrile], the IC50 stood at 34.8 µM.

For `CNC(=O)O[C@@H]1CCC[C@H]1C(C#N)(c1ccccc1)C1CCN(CC2(F)CN(c3ccc(S(=O)(=O)c4cnn(C)c4)cc3)C2)CC1` (mixture of isomers) [compound 370, rac-(1R,2S)-2-(cyano(1-((3-fluoro-1-(4-((1-methyl-1H-pyrazol-4-yl)sulfonyl)phenyl)azetidin-3-yl)methyl)piperidin-4-yl)(phenyl)methyl)cyclopentyl methylcarbamate], the IC50 came out at 3.6 µM.

Consider `COC[C@@H]1CCC[C@H]1C(C#N)(c1ccccc1)C1CCN(CC2CN(c3ccc(S(=O)(=O)C4CC4)cc3)C2)CC1` (mixture of isomers) [compound 266, rac-2-(1-((1-(4-(cyclopropylsulfonyl)phenyl)azetidin-3-yl)methyl)piperidin-4-yl)-2-((1R,2R)-2-(methoxymethyl)cyclopentyl)-2-phenylacetonitrile], for which the IC50 is 4.5 µM.

Regarding `CS(=O)(=O)c1ccc(N2CC(CN3CCC(C4(C5CCCC5)C(=O)N(Cc5ccccc5)Cc5ccccc54)CC3)C2)cc1` (centres unmarked) [compound 25, 2-benzyl-4-cyclopentyl-4-(1-((1-(4-(methylsulfonyl)phenyl)azetidin-3-yl)methyl)piperidin-4-yl)-1,4-dihydroisoquinolin-3(2H)-one], the half-maximal inhibitory concentration (IC50) amounted to 2.7 µM.

On to `c1ccc(CN2CCC(CC3(C4CCCC4)NCCc4ccccc43)CC2)cc1` (centres unmarked) [compound 106, 1-((1-benzylpiperidin-4-yl)methyl)-1-cyclopentyl-1,2,3,4-tetrahydroisoquinoline], for which the IC50 is 84.1 µM.

On to `CC(=O)O[C@@H]1CCC[C@H]1C1(C2CCN(CC3CN(c4ccc(S(=O)(=O)C5CC5)cc4)C3)CC2)CN(C)Cc2ccccc21` (mixture of isomers) [compound 204, rac-(1R,2S)-2-(4-(1-((1-(4-(cyclopropylsulfonyl)phenyl)azetidin-3-yl)methyl)piperidin-4-yl)-2-methyl-1,2,3,4-tetrahydroisoquinolin-4-yl)cyclopentyl acetate], for which the IC50 amounted to 0.122 µM.

The values above are taken from US10899738B2 (THE REGENTS OF THE UNIVERSITY OF MICHIGAN, priority 2016, dated 2021).
